In the assay the target is Factor D (Homo sapiens (Human), UniProt P00746). Briefly: Factor D esterolytic assay (Z-Lys-SBzl substrate, DTNB, 405 nm). In kind it is biochemical. The note with it: Z-Lys-SBzl 1.29 mM, pH 7.5, 10% DMSO, tested a minimum of three times, read-out: Measured Ki (IC50) Value for Compounds: IC50. The method, boiled down:
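Human Factor D ([…]) with 1.29 mM Z-Lys-SBzl in 100 mM HEPES, 500 mM NaCl, pH 7.5, 10% DMSO; substrate added immediately or after room-temperature preincubation. Released thiol reacted with DTNB, rate followed at 405 nm for 600 sec, 690 nm background subtracted. IC50 from percent inhibition versus uninhibited rate, n≥3.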
Chain of Factor D (P00746 26-253): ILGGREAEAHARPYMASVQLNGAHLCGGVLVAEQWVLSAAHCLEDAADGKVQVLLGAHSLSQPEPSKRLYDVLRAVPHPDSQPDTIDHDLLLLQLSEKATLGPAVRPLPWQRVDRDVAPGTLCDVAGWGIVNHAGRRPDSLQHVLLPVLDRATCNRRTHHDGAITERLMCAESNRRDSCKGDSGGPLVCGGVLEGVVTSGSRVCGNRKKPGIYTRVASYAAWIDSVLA
As for `Cn1cc2c(-c3cccc(CN)c3F)cc(COc3ccccc3CC(=O)O)cc2n1` [Compound 129e, 2-(2-((4-(3-(aminomethyl)-2-fluorophenyl)-2-methyl-2H-indazol-6-yl)methoxy)phenyl)acetic acid], the IC50 was below 1000 nM.
In the case of `NCc1cccc(-c2cc(COc3ccc(C4CC4)cc3CC(=O)O)cc3ccoc23)c1` [Compound 130g, 2-(2-((7-(3-(aminomethyl)phenyl)benzofuran-5-yl)methoxy)-5-cyclopropylphenyl)acetic acid], the IC50 is below 1000 nM.
The value for `Cn1ncc2c(-c3cccc(CN)c3)cc(COc3ccccc3CC(=O)O)cc21` [Compound 131b, 2-(2-((4-(3-(aminomethyl)phenyl)-1-methyl-1H-indazol-6-yl)methoxy)phenyl)acetic acid] was below 1000 nM.
As for `COCc1cc2cc(COc3ccccc3CC(=O)O)cc(-c3ccnc(CN)c3)c2o1` [Compound 132b, 2-(2-((7-(2-(aminomethyl)pyridin-4-yl)-2-(methoxymethyl)benzofuran-5-yl)methoxy)phenyl)acetic acid], the IC50 is below 1000 nM.
For the compound `Cn1ccc2c(-c3ccnc(CN)c3)cc(COc3ccccc3CC(=O)O)cc21` [Compound 133c, 2-(2-((4-(2-(aminomethyl)pyridin-4-yl)-1-methyl-1H-indol-6-yl)methoxy)phenyl)acetic acid], the IC50 is below 1000 nM.
Turning to `NCc1cccc(-c2cc(COc3ccccc3CC(=O)O)nc3ccoc23)c1F` [Compound 134b, 2-(2-((7-(3-(aminomethyl)-2-fluorophenyl)furo[3,2-b]pyridin-5-yl)methoxy)phenyl)acetic acid], the half-maximal inhibitory concentration (IC50) was below 1000 nM.
Take `Cn1ncc2c(-c3ccnc(CN)c3)cc(COc3ccccc3CC(=O)O)cc21` [Compound 135c, 2-(2-((4-(2-(aminomethyl)pyridin-4-yl)-1-methyl-1H-indazol-6-yl)methoxy)phenyl)acetic acid]: the IC50 is below 1000 nM.
As for `NCc1cccc(-c2cc(COc3ccccc3CC(=O)O)c(F)c3ccoc23)c1` [Compound 136e, 2-(2-((7-(3-(aminomethyl)phenyl)-4-fluorobenzofuran-5-yl)methoxy)phenyl)acetic acid], the IC50 is below 1000 nM.
For `NCc1cccc(-c2cc(COc3ccccc3CC(=O)O)c(F)c3ccoc23)c1F` [Compound 137b, 2-(2-((7-(3-(aminomethyl)-2-fluorophenyl)-4-fluorobenzofuran-5-yl)methoxy)phenyl)acetic acid], the IC50 is below 1000 nM.
For the compound `CNCc1cc2cc(COc3ccccc3CC(=O)O)cc(-c3cccc(CN)c3)c2o1` [Compound 138f, 2-(2-((7-(3-(aminomethyl)phenyl)-2-((methylamino)methyl)benzofuran-5-yl)methoxy)phenyl)acetic acid], the IC50 was below 1000 nM.
Turning to `NCc1cccc(-c2cc(COc3ccccc3CC(=O)O)cc3cc(CN4CCOCC4)oc23)c1` [Compound 139c, 2-(2-((7-(3-(aminomethyl)phenyl)-2-(morpholinomethyl)benzofuran-5-yl)methoxy)phenyl)acetic acid], the IC50 is below 1000 nM.
`NCc1cccc(-c2cc(COc3ccccc3CC(=O)O)cc3cc(Cn4ccnc4)oc23)c1` [Compound 140c, 2-(2-((2-((1H-imidazol-1-yl)methyl)-7-(3-(aminomethyl)phenyl)benzofuran-5-yl)methoxy)phenyl)acetic acid]: the IC50 is below 1000 nM.
Turning to `CN(C)Cc1cc2cc(COc3ccccc3CC(=O)O)cc(-c3cccc(CN)c3)c2o1` [Compound 141c, 2-(2-((7-(3-(aminomethyl)phenyl)-2-((dimethylamino)methyl)benzofuran-5-yl)methoxy)phenyl)acetic acid], the IC50 is below 1000 nM.
The value for `NCc1cccc(-c2nc(C(=O)Nc3cscc3CC(=O)O)c3cccn3n2)c1F` [Compound 142d, 2-(4-(2-(3-(aminomethyl)-2-fluorophenyl)pyrrolo[2,1-f][1,2,4]triazine-4-carboxamido)thiophen-3-yl)acetic acid] was below 1000 nM.
For `NCc1cccc(-c2nc(C(=O)Nc3ccoc3CC(=O)O)c3cccn3n2)c1F` [Compound 143g, 2-(3-(2-(3-(aminomethyl)-2-fluorophenyl)pyrrolo[2,1-f][1,2,4]triazine-4-carboxamido)furan-2-yl)acetic acid], the IC50 is above 10000 nM.
As for `NCc1cccc(-c2nc(C(=O)Nc3ccsc3CC(=O)O)c3cccn3n2)c1F` [Compound 144d, 2-(3-(2-(3-(aminomethyl)-2-fluorophenyl)pyrrolo[2,1-f][1,2,4]triazine-4-carboxamido)thiophen-2-yl)acetic acid], the figure is below 1000 nM; as for `NCc1cccc(-c2nc(C(=O)Nc3cscc3CC(=O)O)cc3ccoc23)c1` [Compound 145c, 2-(4-(7-(3-(aminomethyl)phenyl)furo[2,3-c]pyridine-5-carboxamido)thiophen-3-yl)acetic acid], below 1000 nM.
On to `Cc1ccc(S(=O)(=O)n2ccc3cc(COc4ccccc4CC(=O)O)cc(-c4cccc(CN)c4)c32)cc1` [Compound 146g, 2-(2-((7-(3-(aminomethyl)phenyl)-1-tosyl-1H-indol-5-yl)methoxy)phenyl)acetic acid], for which the IC50 was in the range of 1000 to 10000 nM.
Consider `NCc1cccc(-c2nc(C(=O)Nc3ccsc3CC(=O)O)cc3ccoc23)c1` [Compound 147c, 2-(3-(7-(3-(aminomethyl)phenyl)furo[2,3-c]pyridine-5-carboxamido)thiophen-2-yl)acetic acid], for which the IC50 is below 1000 nM.
As for `NCc1cccc(-c2cc(COc3ccccc3CC(=O)O)cc3c2ccn3CC2CC2)c1` [Compound 148e, 2-(2-((4-(3-(aminomethyl)phenyl)-1-(cyclopropylmethyl)-1H-indol-6-yl)methoxy)phenyl)acetic acid], the figure is below 1000 nM; as for `NCc1cccc(-c2cc(COc3ccccc3CC(=O)O)cc3c2ccn3CC2CC2)c1F` [Compound 149b, 2-(2-((4-(3-(aminomethyl)-2-fluorophenyl)-1-(cyclopropylmethyl)-1H-indol-6-yl)methoxy)phenyl)acetic acid], below 1000 nM.
For the compound `Cn1ccc2c(-c3ccnc(CN)c3F)cc(COc3ccccc3CC(=O)O)cc21` [Compound 150b, 2-(2-((4-(2-(aminomethyl)-3-fluoropyridin-4-yl)-1-methyl-1H-indol-6-yl)methoxy)phenyl)acetic acid], the IC50 is below 1000 nM.
In the case of `Cn1ncc2c(-c3ccnc(CN)c3F)cc(COc3ccccc3CC(=O)O)cc21` [Compound 151c, 2-(2-((4-(2-(aminomethyl)-3-fluoropyridin-4-yl)-1-methyl-1H-indazol-6-yl)methoxy)phenyl)acetic acid], the IC50 is below 1000 nM.
On to `NCc1cccc(-c2cc(CNc3ccccc3CC(=O)O)cc3ccoc23)c1F` [Compound 152d, lithium 2-(2-(((7-(3-(aminomethyl)-2-fluorophenyl)benzofuran-5-yl)methyl)amino)phenyl)acetate], for which the IC50 is below 1000 nM.
As for `NCc1cccc(-c2cc(CNc3ccccc3CC(=O)O)cc3ccoc23)c1` [Compound 153b, lithium 2-(2-(((7-(3-(aminomethyl)phenyl)benzofuran-5-yl)methyl)amino)phenyl)acetate], the figure is below 1000 nM.
As for `NCc1cccc(-c2cc(COc3ccccc3CC(=O)O)cc3c(C(F)(F)F)coc23)c1` [Compound 154g, 2-(2-((7-(3-(aminomethyl)phenyl)-3-(trifluoromethyl)benzofuran-5-yl)methoxy)phenyl)acetic acid], the figure is below 1000 nM; as for `NCc1cc(-c2cc(COc3ccccc3CC(=O)O)cc3c2ccn3CC2CC2)ccn1` [Compound 155c, 2-(2-((4-(2-(aminomethyl)pyridin-4-yl)-1-(cyclopropylmethyl)-1H-indol-6-yl)methoxy)phenyl)acetic acid], below 1000 nM.
With `NCc1cccc(-c2cc(COc3ccccc3CC(=O)O)cc3[nH]ncc23)c1` [Compound 156b, 2-(2-((4-(3-(aminomethyl)phenyl)-1H-indazol-6-yl)methoxy)phenyl)acetic acid], the IC50 is below 1000 nM.
As to `NCc1cccc(-c2nc(C(=O)Nc3cccnc3CC(=O)O)c3cccn3n2)c1` [Compound 157d, 2-(3-(2-(3-(aminomethyl)phenyl)pyrrolo[2,1-f][1,2,4]triazine-4-carboxamido)pyridin-2-yl)acetic acid], the IC50 is above 10000 nM.
The value for `NCc1cccc(-c2cc(C(=O)Nc3ccccc3CC(=O)O)cc3cc[nH]c23)c1` [Compound 158c, 2-(2-(7-(3-(aminomethyl)phenyl)-1H-indole-5-carboxamido)phenyl)acetic acid] was 1000 to 10000 nM.
As for `NCc1cccc(-c2cc(COc3ccccc3CC(=O)O)cc3nncn23)c1` [Compound 159f, 2-(2-((5-(3-(aminomethyl)phenyl)-[1,2,4]triazolo[4,3-a]pyridin-7-yl)methoxy)phenyl)acetic acid], the figure is 1000 to 10000 nM; as for `NCc1cccc(-c2cc(C(=O)Nc3ccccc3CC(=O)O)cc3c2CCC3)c1` [Compound 160e, 2-(2-(7-(3-(aminomethyl)phenyl)-2,3-dihydro-1H-indene-5-carboxamido)phenyl)acetic acid], below 1000 nM; as for `Cc1ccc2c(C(=O)Nc3ccccc3CC(=O)O)nc(-c3cccc(CN)c3F)nn12` [Compound 161e, 2-(2-(2-(3-(aminomethyl)-2-fluorophenyl)-7-methylpyrrolo[2,1-f][1,2,4]triazine-4-carboxamido)phenyl)acetic acid], below 1000 nM.
Turning to `Cc1ccc(OCc2cc(-c3cccc(CN)c3)c3occc3c2)c(CC(=O)O)c1` [Compound 162e, 2-(2-((7-(3-(aminomethyl)phenyl)benzofuran-5-yl)methoxy)-5-methylphenyl)acetic acid], the IC50 was below 1000 nM.
As for `NCc1cccc(-c2cc(COc3ccncc3CC(=O)O)cc3ccoc23)c1` [Compound 163d, 2-(4-((7-(3-(aminomethyl)phenyl)benzofuran-5-yl)methoxy)pyridin-3-yl)acetic acid], the IC50 was below 1000 nM.

In general, IC50 refers to the concentration that inhibits the measured activity by half.

Values taken from patent US11370774B2, “Substituted benzofuran, benzopyrrole, benzothiophene, and structurally related complement inhibitors” (BioCryst Pharmaceuticals, Inc., priority 2018, dated 2022).
